Assay results as given in patent publication US20090036448A1, “PYRIMIDINE DERIVATIVES AND METHODS OF TREATMENT RELATED TO THE USE THEREOF” (TAISHO PHARMECUTICAL CO., LTD., priority 2004, published 2009).

What follows are molecules tested against MCH receptor (Homo sapiens, UniProt Q99705) (assay: Receptor binding assay with Radiolabelled MCH Ligand). Conditions: class by percent of control at 10^-7 M or IC50.
Design: expressed in transfected cells; host or cells: 293 cells (human kidney, ATCC), transient transfection; crude membranes
Outline: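 This was a filtration radioligand displacement assay: compounds, first tested at 1 and 0.1 μM and then over a range, inhibited binding of a labelled MCH ligand to transfected 293-cell membranes at room temperature for 60–120 min. Specific binding excluded a cold-MCH nonspecific signal. Ki was derived from IC50 via Cheng-Prusoff, using an independently measured KD.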

Sequence of MCH receptor (Q99705 whole entry): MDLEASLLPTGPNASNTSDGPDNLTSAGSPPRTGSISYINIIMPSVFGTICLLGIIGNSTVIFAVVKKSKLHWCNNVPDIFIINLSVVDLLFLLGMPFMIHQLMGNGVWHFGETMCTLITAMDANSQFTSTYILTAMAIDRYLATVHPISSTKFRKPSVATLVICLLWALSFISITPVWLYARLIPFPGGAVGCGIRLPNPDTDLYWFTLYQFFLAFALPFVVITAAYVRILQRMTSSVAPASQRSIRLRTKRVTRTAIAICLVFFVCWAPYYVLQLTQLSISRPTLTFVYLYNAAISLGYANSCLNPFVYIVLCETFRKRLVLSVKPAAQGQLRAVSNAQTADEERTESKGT

SMILES	class
Cc1nc(N[C@H]2CC[C@@H](NC(=O)Nc3c(Cl)cc(Cl)cc3Cl)CC2)cc(N(C)C)n1 [compound 430]	3 (Class 3: The value of percent of control at 10^−7 M was more than 60% or the value of IC50 was more than 200 nM.)
Cc1nc(N[C@H]2CC[C@@H](NC(=O)Nc3c(F)cc(Br)cc3Br)CC2)cc(N(C)C)n1 [compound 431]	3 (Class 3: The value of percent of control at 10^−7 M was more than 60% or the value of IC50 was more than 200 nM.)
Cc1nc(N[C@H]2CC[C@@H](NC(=O)Nc3cccc4ccccc34)CC2)cc(N(C)C)n1 [compound 432]	3 (Class 3: The value of percent of control at 10^−7 M was more than 60% or the value of IC50 was more than 200 nM.)
Cc1nc(N[C@H]2CC[C@@H](NC(=O)Nc3c(C)noc3-c3ccccc3)CC2)cc(N(C)C)n1 [compound 433]	3 (Class 3: The value of percent of control at 10^−7 M was more than 60% or the value of IC50 was more than 200 nM.)
Cc1nc(N[C@H]2CC[C@@H](NC(=S)NCC(c3ccccc3)c3ccccc3)CC2)cc(N(C)C)n1 [compound 434]	3 (Class 3: The value of percent of control at 10^−7 M was more than 60% or the value of IC50 was more than 200 nM.)
Cc1cc(C)c(NC(=S)N[C@H]2CC[C@@H](Nc3cc(N(C)C)nc(C)n3)CC2)c(C)c1 [compound 437, N-(cis-4-{[6-(dimethylamino)-2-methylpyrimidin-4-yl]amino}cyclohexyl)-N′-mesitylthiourea]	2 (Class 2: The value of percent of control at 10^−7 M was from 40% to 60% or the value of IC50 was from 50 nM to 200 nM.)
CCc1cccc(CC)c1NC(=S)N[C@H]1CC[C@@H](Nc2cc(N(C)C)nc(C)n2)CC1 [compound 438, N-(2,6-diethylphenyl)-N′-(cis-4-{[6-(dimethylamino)-2-methylpyrimidin-4-yl]amino}cyclohexyl)thiourea]	2 (Class 2: The value of percent of control at 10^−7 M was from 40% to 60% or the value of IC50 was from 50 nM to 200 nM.)
Cc1nc(N[C@H]2CC[C@@H](NC(=S)Nc3ccc(N(C)C)c4ccccc34)CC2)cc(N(C)C)n1 [compound 440]	3 (Class 3: The value of percent of control at 10^−7 M was more than 60% or the value of IC50 was more than 200 nM.)
COc1cc(NC(=S)N[C@H]2CC[C@@H](Nc3cc(N(C)C)nc(C)n3)CC2)cc(OC)c1OC [compound 442, N-(cis-4-{[6-(dimethylamino)-2-methylpyrimidin-4-yl]amino}cyclohexyl)-N′-(3,4,5-trimethoxyphenyl)thiourea]	1 (Class 1: The value of percent of control at 10^−7 M was less than 40% or the value of IC50 was less than 50 nM.)
COc1ccc(NC(=S)N[C@H]2CC[C@@H](Nc3cc(N(C)C)nc(C)n3)CC2)c(OC)c1 [compound 444]	3 (Class 3: The value of percent of control at 10^−7 M was more than 60% or the value of IC50 was more than 200 nM.)
COc1ccc(NC(=S)N[C@H]2CC[C@@H](Nc3cc(N(C)C)nc(C)n3)CC2)cc1OC [compound 445]	3 (Class 3: The value of percent of control at 10^−7 M was more than 60% or the value of IC50 was more than 200 nM.)
CCOc1ccccc1NC(=S)N[C@H]1CC[C@@H](Nc2cc(N(C)C)nc(C)n2)CC1 [compound 446]	3 (Class 3: The value of percent of control at 10^−7 M was more than 60% or the value of IC50 was more than 200 nM.)
Cc1nc(N[C@H]2CC[C@@H](NC(=S)Nc3c(Br)cc(Br)cc3Br)CC2)cc(N(C)C)n1 [compound 447, N-(cis-4-{[6-(dimethylamino)-2-methylpyrimidin-4-yl]amino}cyclohexyl)-N′-(2,4,6-tribromophenyl)thiourea]	1 (Class 1: The value of percent of control at 10^−7 M was less than 40% or the value of IC50 was less than 50 nM.)
Cc1nc(N[C@H]2CC[C@@H](NC(=S)Nc3c(F)cc(Br)cc3Br)CC2)cc(N(C)C)n1 [compound 448]	3 (Class 3: The value of percent of control at 10^−7 M was more than 60% or the value of IC50 was more than 200 nM.)
Cc1nc(N[C@H]2CC[C@@H](NC(=S)Nc3ccc(I)cc3)CC2)cc(N(C)C)n1 [compound 449]	3 (Class 3: The value of percent of control at 10^−7 M was more than 60% or the value of IC50 was more than 200 nM.)
Cc1nc(N[C@H]2CC[C@@H](NC(=S)Nc3ccc(C#N)cc3)CC2)cc(N(C)C)n1 [compound 450]	3 (Class 3: The value of percent of control at 10^−7 M was more than 60% or the value of IC50 was more than 200 nM.)
COC(=O)c1scc(C)c1NC(=S)N[C@H]1CC[C@@H](Nc2cc(N(C)C)nc(C)n2)CC1 [compound 451]	3 (Class 3: The value of percent of control at 10^−7 M was more than 60% or the value of IC50 was more than 200 nM.)
Cc1nc(N[C@H]2CC[C@@H](NC(=O)OCC(C)(C)C)CC2)cc(N(C)C)n1 [compound 452]	3 (Class 3: The value of percent of control at 10^−7 M was more than 60% or the value of IC50 was more than 200 nM.)
COc1cc(COC(=O)N[C@H]2CC[C@@H](Nc3cc(N(C)C)nc(C)n3)CC2)c([N+](=O)[O-])cc1OC [compound 453]	3 (Class 3: The value of percent of control at 10^−7 M was more than 60% or the value of IC50 was more than 200 nM.)

SMILES	class
Cc1nc(N[C@H]2CC[C@@H](NC(=O)Oc3cccc(C(F)(F)F)c3)CC2)cc(N(C)C)n1 [compound 454]	3 (Class 3: The value of percent of control at 10^−7 M was more than 60% or the value of IC50 was more than 200 nM.)
Cc1nc(N[C@H]2CC[C@@H](NC(=O)Oc3ccc(Br)cc3)CC2)cc(N(C)C)n1 [compound 455, 4-bromophenyl (cis-4-{[6-(dimethylamino)-2-methylpyrimidin-4-yl]amino}cyclohexyl)carbamate]	3 (Class 3: The value of percent of control at 10^−7 M was more than 60% or the value of IC50 was more than 200 nM.)
COc1ccccc1OC(=O)N[C@H]1CC[C@@H](Nc2cc(N(C)C)nc(C)n2)CC1 [compound 456]	3 (Class 3: The value of percent of control at 10^−7 M was more than 60% or the value of IC50 was more than 200 nM.)
COCCOC(=O)N[C@H]1CC[C@@H](Nc2cc(N(C)C)nc(C)n2)CC1 [compound 457]	3 (Class 3: The value of percent of control at 10^−7 M was more than 60% or the value of IC50 was more than 200 nM.)
CCCCCCCCOC(=O)N[C@H]1CC[C@@H](Nc2cc(N(C)C)nc(C)n2)CC1 [compound 458]	3 (Class 3: The value of percent of control at 10^−7 M was more than 60% or the value of IC50 was more than 200 nM.)
CCOC(=O)N[C@H]1CC[C@@H](Nc2cc(N(C)C)nc(C)n2)CC1 [compound 459]	3 (Class 3: The value of percent of control at 10^−7 M was more than 60% or the value of IC50 was more than 200 nM.)
Cc1nc(N[C@H]2CC[C@@H](NC(=O)OCc3ccc([N+](=O)[O-])cc3)CC2)cc(N(C)C)n1 [compound 460]	3 (Class 3: The value of percent of control at 10^−7 M was more than 60% or the value of IC50 was more than 200 nM.)
Cc1nc(N[C@H]2CC[C@@H](NC(=O)Oc3ccc4ccccc4c3)CC2)cc(N(C)C)n1 [compound 461]	3 (Class 3: The value of percent of control at 10^−7 M was more than 60% or the value of IC50 was more than 200 nM.)
C=CCOC(=O)N[C@H]1CC[C@@H](Nc2cc(N(C)C)nc(C)n2)CC1 [compound 462]	3 (Class 3: The value of percent of control at 10^−7 M was more than 60% or the value of IC50 was more than 200 nM.)
Cc1nc(N[C@H]2CC[C@@H](NC(=O)OCc3ccccc3)CC2)cc(N(C)C)n1 [compound 463]	3 (Class 3: The value of percent of control at 10^−7 M was more than 60% or the value of IC50 was more than 200 nM.)
Cc1nc(N[C@H]2CC[C@@H](NC(=O)Oc3ccccc3)CC2)cc(N(C)C)n1 [compound 464, phenyl (cis-4-{[6-(dimethylamino)-2-methylpyrimidin-4-yl]amino}cyclohexyl)carbamate]	3 (Class 3: The value of percent of control at 10^−7 M was more than 60% or the value of IC50 was more than 200 nM.)
Cc1nc(N[C@H]2CC[C@@H](NC(=O)OC3C[C@H](C)CC[C@H]3C(C)C)CC2)cc(N(C)C)n1 (some centres unmarked) [compound 465]	3 (Class 3: The value of percent of control at 10^−7 M was more than 60% or the value of IC50 was more than 200 nM.)
Cc1ccc(OC(=O)N[C@H]2CC[C@@H](Nc3cc(N(C)C)nc(C)n3)CC2)cc1 [compound 466]	3 (Class 3: The value of percent of control at 10^−7 M was more than 60% or the value of IC50 was more than 200 nM.)
COC(=O)N[C@H]1CC[C@@H](Nc2cc(N(C)C)nc(C)n2)CC1 [compound 467]	3 (Class 3: The value of percent of control at 10^−7 M was more than 60% or the value of IC50 was more than 200 nM.)
Cc1nc(N[C@H]2CC[C@@H](NC(=O)OCc3ccccc3Cl)CC2)cc(N(C)C)n1 [compound 468]	3 (Class 3: The value of percent of control at 10^−7 M was more than 60% or the value of IC50 was more than 200 nM.)
Cc1nc(N[C@H]2CC[C@@H](NC(=O)OCC3c4ccccc4-c4ccccc43)CC2)cc(N(C)C)n1 [compound 469]	3 (Class 3: The value of percent of control at 10^−7 M was more than 60% or the value of IC50 was more than 200 nM.)
Cc1nc(N[C@H]2CC[C@@H](NC(=O)OCC(Cl)(Cl)Cl)CC2)cc(N(C)C)n1 [compound 470]	3 (Class 3: The value of percent of control at 10^−7 M was more than 60% or the value of IC50 was more than 200 nM.)
Cc1nc(N[C@H]2CC[C@@H](NS(=O)(=O)/C=C/c3ccccc3)CC2)cc(N(C)C)n1 [compound 471]	3 (Class 3: The value of percent of control at 10^−7 M was more than 60% or the value of IC50 was more than 200 nM.)
Cc1nc(N[C@H]2CC[C@@H](NS(=O)(=O)Cc3cccc(C(F)(F)F)c3)CC2)cc(N(C)C)n1 [compound 472]	3 (Class 3: The value of percent of control at 10^−7 M was more than 60% or the value of IC50 was more than 200 nM.)
